Among the data in US12065416B2, “cGAS antagonist compounds” (IMMUNESENSOR THERAPEUTICS, INC., priority 2016, dated 2024) are IC50 values, retold here.

Assay [1] deals with T1, recombinant cGAS (aa147-522) (Homo sapiens, UniProt Q8N884).
T1 construct: recombinant cGAS (aa147-522); His6-SUMO (N, cleaved yes); made in house; host or cells: E. coli BL21/pLys
The experiment in a line: In vitro assay for inhibition of cGAS activity (ATP consumption, Kinase Glo). It counts as biochemical. Conditions: 37° C. 20 minutes, read-out: Activity (Inhibition of cGAS enzyme activity in vitro, IC50). The procedure, abridged:
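Human cGAS (aa147-522) at 1.5 ng/μL incubated with serially diluted compound at 37° C for 20 min; remaining ATP read by Kinase Glo luminescence. IC50 from percent ATP consumption plotted against log compound concentration.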
(In general: Kinase-Glo reads ATP consumption through a luciferase reaction.)

The subject of assay [2] is cGAS activity in THP1 cells. The experiment in a line: Cellular assay: ISRE-Gaussia luciferase reporter THP1 cells transfected with ISD (Interferon Stimulatory DNA). The format is cell-based. Conditions: Homo sapiens, THP-1; ISRE-Gaussia luciferase reporter THP1 cells transfected with 2 μg/mL ISD, 16 hours; read-out: THP1-ISD (Inhibition of cGAS activity in THP1 cells, IC50). How it is done:
(§1) A reporter THP1 cell line harboring a gene encoding Gaussia Luciferase under the control of 5 tandem repeats of interferon-stimulated response elements (ISRE) was used to test inhibition of cGAS activity by synthetic compounds in human cells. These cells were plated on 96-well plates at 0.3×10^6/well and incubated with various concentrations of compounds or DMSO for 5 min, followed by transfection of 2 μg/mL of ISD (Interferon Stimulatory DNA, a 45 bp DNA oligo) or mock transfected using lipofectamine 2000 (Life Technology) method, according to manufacturer's instructions. 16 hours later, 15 μL of the media from each well is transferred to a new plate, 50 μL of solution containing 50 mM Hepes-NaOH, 50 mM NaCl, 10 mM EDTA, 1 μM of coeleanterazine was added to each well and luminescence was measured immediately. Fold increase in luminescence compared to mock transfection is plotted against concentrations of each compound, and IC50 is calculated using Graphpad. To evaluate the specificity of a compound, the same procedure was performed except that cells were transfected with 2 μg/mL poly(I:C) or infected with Sendai Virus (SeV) at 50 Unit/mL, which are known to activate the RIG-I-MAVS pathway. A specific inhibitory compound should inhibit interferon induction by DNA but have minimal effect on poly(I:C) or Sendai virus induced interferon reporter gene expression.
For orientation: Reporter assays use an easily measured gene product as a stand-in for the process of interest.

For another assay, the system named is RIG-I-MAVS pathway. Kind of assay: Specificity assay: ISRE reporter THP1 cells infected with Sendai Virus (SeV). The format is cell-based. Conditions: Homo sapiens, THP-1; ISRE-Gaussia luciferase reporter THP1 cells infected with Sendai Virus (SeV) at 50 Unit/mL. How it is done: as §1

Where only a bound is given, the exact number is not on record here.

T1 sequence (Q8N884 147-522): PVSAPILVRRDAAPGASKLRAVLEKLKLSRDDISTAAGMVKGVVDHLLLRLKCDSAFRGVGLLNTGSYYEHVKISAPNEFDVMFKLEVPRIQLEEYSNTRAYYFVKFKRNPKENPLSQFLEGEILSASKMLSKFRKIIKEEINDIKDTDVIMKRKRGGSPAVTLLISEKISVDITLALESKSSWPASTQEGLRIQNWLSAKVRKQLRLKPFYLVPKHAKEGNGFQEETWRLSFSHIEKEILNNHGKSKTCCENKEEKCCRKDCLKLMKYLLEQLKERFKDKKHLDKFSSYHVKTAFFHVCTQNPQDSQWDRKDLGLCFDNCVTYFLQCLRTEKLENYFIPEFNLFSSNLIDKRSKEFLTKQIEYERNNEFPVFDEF

As to `CN1C(=O)S/C(=C\c2cc(OCc3cnc(NN)nc3)c(O)cc2Br)C1=O` [Ex184], the results for the IC50 (in assay [1]; in assay [2]; with RIG-I-MAVS pathway) were not above 500 nM, not above 2500 nM and not below 10000 nM, respectively.
With `O=C1/C(=C/c2cc(OCc3cncnc3)c(O)cc2Br)Sc2ncccc21` [Ex193], the results for the IC50 (in assay [1]; in assay [2]; in the assay on RIG-I-MAVS pathway) were not above 500 nM, 2500 to 10000 nM and not below 10000 nM, respectively.
On to `Nc1ncc(COc2cc(/C=C3\Sc4ncccc4C3=O)c(Br)cc2O)cn1` [Ex194], for which the half-maximal inhibitory concentration (IC50) (usually the point on the concentration scale where inhibition reaches its midpoint) in assay [1] was not above 500 nM; in assay [2] it was not above 2500 nM; in the assay on RIG-I-MAVS pathway, not below 10000 nM.
For the compound `CNc1ncc(COc2cc(/C=C3\Sc4ncccc4C3=O)c(Br)cc2O)cn1` [Ex195], the values for the IC50 (in assay [1]; in assay [2]; in the assay with RIG-I-MAVS pathway) were not above 500 nM, 2500 to 10000 nM and not below 10000 nM, respectively.
Take `O=C1/C(=C/c2cc(OCc3cnc(NCCO)nc3)c(O)cc2Br)Sc2ncccc21` [Ex196]: the IC50 was not above 500 nM in assay [1], not above 2500 nM in assay [2] and not below 10000 nM in the assay with RIG-I-MAVS pathway.
For `COCCNc1ncc(COc2cc(/C=C3\Sc4ncccc4C3=O)c(Br)cc2O)cn1` [Ex197], in that order: not above 500 nM, 2500 to 10000 nM and not below 10000 nM.
For `O=C1/C(=C/c2cc(OCc3cnc(NCc4ccncc4)nc3)c(O)cc2Br)Sc2ncccc21` [Ex200], in that order: not above 500 nM, not above 2500 nM and not below 10000 nM.
For `CN1C(=O)S/C(=C\c2cc(OCc3cnc(N)nc3)c(Oc3cnc(N)s3)cc2Br)C1=O` [Ex211], in that order: 500 to 10000 nM, 2500 to 10000 nM and not below 10000 nM.
In the case of `CN1C(=O)S/C(=C\c2cc(OCc3cnc([S+](C)[O-])nc3)c(O)cc2Br)C1=O` (stereo not drawn) [Ex213], the IC50 was not above 500 nM in assay [1], 2500 to 10000 nM in assay [2] and not below 10000 nM in the assay with RIG-I-MAVS pathway.
In the case of `C[S+]([O-])c1ncc(COc2cc(/C=C3\Sc4ncccc4C3=O)c(Br)cc2O)cn1` (stereo not drawn) [Ex216], the IC50 in assay [1] was not above 500 nM; in assay [2] it was not above 2500 nM; in the assay with RIG-I-MAVS pathway it was 2500 to 10000 nM.
On to `CN1C(=O)S/C(=C\c2cc(OCc3cn(-c4ccncc4)nn3)c(O)cc2Br)C1=O` [Ex233], for which the results for the half-inhibitory concentration (IC50) (in assay [1]; in assay [2]; in the assay with RIG-I-MAVS pathway) were not below 10000 nM, 2500 to 10000 nM and not below 10000 nM, respectively.
For the compound `CN1C(=O)S/C(=C\c2cc(Oc3ccc(N)nc3)c(O)cc2Br)C1=O` [Ex234], the IC50 in assay [1] was not below 10000 nM; in assay [2], 2500 to 10000 nM; with RIG-I-MAVS pathway it was not below 10000 nM.
Turning to `CNc1ncc(COc2cc(/C=C3\Sc4ncccc4C3=O)c(Br)c(F)c2O)cn1` [ExA1], the figures for the IC50 (in assay [1]; in assay [2]; with RIG-I-MAVS pathway) were not above 500 nM, 2500 to 10000 nM and not below 10000 nM, respectively.
For `O=C1/C(=C/c2cc(OCc3cnc(NCc4ccccn4)nc3)c(O)c(F)c2Br)Sc2ncccc21` [ExA2], in that order: not above 500 nM, not below 10000 nM and not below 10000 nM.
For `O=C1/C(=C/c2cc(OCc3cnc(NCc4cccnc4)nc3)c(O)c(F)c2Br)Sc2ncccc21` [ExA3], in that order: not above 500 nM, 2500 to 10000 nM and not below 10000 nM.
For `Cc1ncc(COc2cc(/C=C3\Sc4ncccc4C3=O)c(Br)c(F)c2O)cn1` [ExA4], in that order: not above 500 nM, not above 2500 nM and not below 10000 nM.
Take `CC(Oc1cc(/C=C2\SC(=O)N(C)C2=O)c(Br)c(F)c1O)c1cnc(Cl)nc1` (stereo not drawn) [ExA6]: the values for the IC50 (in assay [1]; in assay [2]; in the assay with RIG-I-MAVS pathway) were not above 500 nM, 2500 to 10000 nM and 2500 to 10000 nM, respectively.
As for `CC(Oc1cc(/C=C2\SC(=O)N(C)C2=O)c(Br)c(F)c1O)c1cnc(N)nc1C(F)(F)F` (stereo not drawn) [ExA7], the figures for the IC50 (in assay [1]; in assay [2]; in the assay with RIG-I-MAVS pathway) were not above 500 nM, 2500 to 10000 nM and not below 10000 nM, respectively.
`C[S+]([O-])c1ncc(COc2cc(/C=C3\Sc4ncccc4C3=O)c(Br)c(F)c2O)cn1` (stereo not drawn) [ExA15]: the half-maximal inhibitory concentration (IC50) in assay [1] is 500 to 10000 nM; in assay [2] it was 2500 to 10000 nM; with RIG-I-MAVS pathway, not below 10000 nM.
For `CN1C(=O)S/C(=C\c2cc(O/C=C/c3cnc(N)nc3)c(O)c(F)c2Br)C1=O` [ExB2], in that order: not above 500 nM, not above 2500 nM and not below 10000 nM.
For `CN1C(=O)S/C(=C\c2cc(OCCc3cnc(N)nc3)c(O)c(F)c2Br)C1=O` [ExB3], in that order: not above 500 nM, not above 2500 nM and not below 10000 nM.
`CC(Oc1cc(/C=C2\SC(=O)N(C)C2=O)c(Br)c(F)c1O)C(O)c1cnc(N)nc1` (stereo not drawn) [ExB4]: the half-maximal inhibitory concentration (IC50) in assay [1] is not above 500 nM; in assay [2], not below 10000 nM; in the assay on RIG-I-MAVS pathway it was not below 10000 nM.
As for `O=C1/C(=C/c2cc(CC(F)(F)F)c(O)cc2Br)Sc2ncccc21` [ExB21], the half-inhibitory concentration (IC50) in assay [1] is not above 500 nM; in assay [2] it was 2500 to 10000 nM; with RIG-I-MAVS pathway, not below 10000 nM.
For `[2H]C([2H])(Oc1cc(/C=C2\SC(=O)N(C)C2=O)c(Br)cc1O)c1cnc(N)nc1` [ExB35], in that order: not above 500 nM, not above 2500 nM and not below 10000 nM.
Regarding `CN1C(=O)S/C(=C\c2cc3c(-c4cnc(N)nc4)c[nH]c3c(F)c2Br)C1=O` [ExB40], the IC50 in assay [1] was not above 500 nM; in assay [2], 2500 to 10000 nM; in the assay on RIG-I-MAVS pathway, not below 10000 nM.
Turning to `CN1C(=O)S/C(=C\c2cc3c(Cc4cnc(N)nc4)c[nH]c3c(F)c2Br)C1=O` [ExB43], the IC50 in assay [1] was not above 500 nM; in assay [2], not below 10000 nM; in the assay with RIG-I-MAVS pathway, not below 10000 nM.
Take `CCC(Oc1cc(/C=C2\SC(=O)N(C)C2=O)c(Br)c(F)c1O)c1cnc(N)nc1` (stereo not drawn) [ExB44]: the IC50 in assay [1] is not above 500 nM; in assay [2], 2500 to 10000 nM; in the assay on RIG-I-MAVS pathway, not below 10000 nM.
